Laboratory results: patent US20230200391A1, “ACTIVE COMPOUND COMBINATIONS AND FUNGICIDE COMPOSITIONS COMPRISING THOSE” (priority 2020, published 2023)
Where “and” joins values, the source holds several entries; their conditions need not be identical. Identical values can stand only once.

Assays:
Type in all cases: cell-based
[1] = tested on: Alternaria alternata; assay: in vitro-Test with Alternaria alternata
Procedure: (§1) Wells of 96-well microtiter plates are filled with 30 μl of a preparation of test compound or compound combination in methanol+emulsifier alkylaryl-polyglycol-ether. Thereafter, the solvent is evaporated in a hood. At the next step, into each well 200 μl of liquid growth medium is given, that has been amended with an appropriate concentration of spores or mycelium suspension of the test fungus.
(§2) With the aid of a photometer the extinction in all wells is measured at the wavelength of 600 nm.
(§3) The microtiter plates are incubated for 3 to 7 days at 20° C. and 85% relative humidity. After the incubation inhibition of growth is determined photometrically. Efficacy is calculated in relation to the untreated control, 0% efficacy means fungal growth as high as in untreated control while 100% efficacy means no fungal growth is measured.

[2] = tested on: Parastagonospora nodorum; assay: in vitro-Test with Parastagonospora nodorum
Procedure: as §1, §2, §3

[3] = tested on: Cordana musae; assay: in vitro-Test with Cordana musae
Procedure: as §1, §2, §3

[4] = tested on: Fusarium culmorum; assay: in vitro-Test with Fusarium culmorum
Procedure: as §1, §2, §3

[5] = tested on: Colletotrichum coccodes; assay: in vitro-Test with Colletotrichum coccodes
Procedure: as §1, §2, §3

[6] = tested on: Botrytis cinerea; assay: in vitro-Test with Botrytis cinerea
Procedure: as §1, §2, §3

[7] = tested on: Diaporthe citri; assay: in vitro-Test with Diaporthe citri
Procedure: as §1, §2, §3

[8] = tested on: Ustilago segetum var. avenae; assay: in vitro-Test with Ustilago segetum var. avenae
Procedure: as §1, §2, §3

[9] = tested on: Cercospora beticola; assay: in vitro-Test with Cercospora beticola
Procedure: as §1, §2, §3

## O=C(NC1CCC1c1ccc(Cl)cc1Cl)c1cccnc1C(F)(F)F (stereo in doubt) [(2.060), cyclobutrifluram]
[1]; 0.04 ppm
  efficacy %: 80%
[1]; 5 ppm
  efficacy %: 88%
[2]; 5 ppm
  efficacy %: 0%
[2]; single compound at 0.04 ppm
  efficacy %: 5%
[2]; single compound at 0.2 ppm
  efficacy %: 13%
[2]; single compound at 5 ppm
  efficacy %: 98%
[3]; 0.04 ppm
  efficacy %: 0%
[3]; 0.2 ppm
  efficacy %: 0%
[4]; 0.04 ppm
  efficacy %: 47%
[4]; 5 ppm
  efficacy %: 56%
[5]; 0.04 ppm
  efficacy %: 0%
[5]; 0.2 ppm
  efficacy %: 0%
[5]; 1 ppm
  efficacy %: 0%
[5]; 5 ppm
  efficacy %: 12%
[6]; 0.04 ppm
  efficacy %: 49%
[6]; 0.2 ppm
  efficacy %: 77%
[6]; 1 ppm
  efficacy %: 92%

## OC(Cc1ccccc1Cl)(Cn1nc[nH]c1=S)C1(Cl)CC1 (stereo not drawn) [(1.018), prothioconazole]
[1]; 0.004 ppm
  efficacy %: 26%
[1]; 0.02 ppm
  efficacy %: 13%
[1]; 0.1 ppm
  efficacy %: 37%
[2]; 0.02 ppm
  efficacy %: 83%
[2]; 0.1 ppm
  efficacy %: 97%
[2]; 0.5 ppm
  efficacy %: 97%
[2]; single compound at 0.004 ppm
  efficacy %: 2%
[3]; 0.004 ppm
  efficacy %: 3% and 0% and 2%
[3]; 0.5 ppm
  efficacy %: 99%
[7]; 0.004 ppm
  efficacy %: 14%
[7]; 0.1 ppm
  efficacy %: 98%
[7]; 0.5 ppm
  efficacy %: 99%
[8]; 0.004 ppm
  efficacy %: 45%
[8]; 0.1 ppm
  efficacy %: 99%
[8]; 0.5 ppm
  efficacy %: 99%
[4]; 0.004 ppm
  efficacy %: 3%
[4]; 0.02 ppm
  efficacy %: 0%
[5]; 0.004 ppm
  efficacy %: 0%
[9]; 0.1 ppm
  efficacy %: 100%
[9]; 0.5 ppm
  efficacy %: 96%

## O=C(NCCc1ncc(C(F)(F)F)cc1Cl)c1ccccc1C(F)(F)F [(2.005), fluopyram]
[1]; 0.16 ppm
  efficacy %: 67%
[1]; 20 ppm
  efficacy %: 89%
[2]; 4 ppm
  efficacy %: 49%
[2]; 20 ppm
  efficacy %: 86%
[9]; 0.16 ppm
  efficacy %: 25%
[9]; 0.8 ppm
  efficacy %: 0%
[9]; 4 ppm
  efficacy %: 11%
[6]; 0.16 ppm
  efficacy %: 48%
[6]; 0.8 ppm
  efficacy %: 77%
[6]; 20 ppm
  efficacy %: 97%

## Cc1nn(C)c(F)c1C(=O)Nc1ccccc1C(C)CC(C)C (stereo not drawn) [(2.017), penflufen]
[1]; 0.04 ppm
  efficacy %: 10%
[1]; 1 ppm
  efficacy %: 65%
[2]; 0.2 ppm
  efficacy %: 0%
[2]; 5 ppm
  efficacy %: 42%
[2]; single compound at 0.04 ppm
  efficacy %: 0%
[2]; single compound at 0.2 ppm
  efficacy %: 4%
[2]; single compound at 1 ppm
  efficacy %: 17%
[2]; single compound at 5 ppm
  efficacy %: 48%

## CC(C)c1ccc(Cl)cc1CN(C(=O)c1c(C(F)F)nn(C)c1F)C1CC1 [(2.038), isoflucypram]
[1]; 1 ppm
  efficacy %: 76%
[4]; 0.04 ppm
  efficacy %: 0%
[9]; 0.04 ppm
  efficacy %: 0%
[6]; 0.2 ppm
  efficacy %: 74%
[6]; 1 ppm
  efficacy %: 86%

## CO/N=C(/C1=NOCCO1)c1ccccc1Oc1ncnc(Oc2ccccc2Cl)c1F [(3.012), fluoxastrobin]
[1]; 0.4 ppm
  efficacy %: 87%
[3]; 2 ppm
  efficacy %: 74%
[3]; 10 ppm
  efficacy %: 81%
[4]; 0.4 ppm
  efficacy %: 26%
[4]; 2 ppm
  efficacy %: 34%
[4]; 10 ppm
  efficacy %: 47% and 54%
[5]; 2 ppm
  efficacy %: 85%

## CON=C(C(=O)OC)c1ccccc1CON=C(C)c1cccc(C(F)(F)F)c1 [(3.020), trifloxystrobin]
[1]; 0.008 ppm
  efficacy %: 22%
[1]; 0.04 ppm
  efficacy %: 62%
[2]; single compound at 0.008 ppm
  efficacy %: 32%
[2]; single compound at 0.04 ppm
  efficacy %: 73%
[2]; single compound at 1 ppm
  efficacy %: 97%
[4]; 0.008 ppm
  efficacy %: 0%
[4]; 0.04 ppm
  efficacy %: 19%
[5]; 0.008 ppm
  efficacy %: 7%
[6]; 0.008 ppm
  efficacy %: 5%
[6]; 0.04 ppm
  efficacy %: 17%
[6]; 0.2 ppm
  efficacy %: 13%

## Cc1cccc(-n2nnn(C)c2=O)c1COc1ccn(-c2ccc(Cl)cc2)n1 [(3.030), metyltetraprole]
[3]; 0.08 ppm
  efficacy %: 44%
[3]; 0.4 ppm
  efficacy %: 70%
[3]; 2 ppm
  efficacy %: 78%
[7]; 2 ppm
  efficacy %: 95%
[7]; 10 ppm
  efficacy %: 99%
[8]; 10 ppm
  efficacy %: 34%
[5]; 0.08 ppm
  efficacy %: 25%
[5]; 0.4 ppm
  efficacy %: 73%
[5]; 10 ppm
  efficacy %: 100%
[6]; 0.008 ppm
  efficacy %: 11%
[6]; 0.4 ppm
  efficacy %: 34%
[6]; 2 ppm
  efficacy %: 41%
[6]; 10 ppm
  efficacy %: 81%

## COC(=O)C(O)(Cn1cncn1)c1ccc(Oc2ccc(Cl)cc2)cc1Cl (stereo not drawn) [(I-1), Methyl 2-[2-chloro-4-(4-chlorophenoxy)phenyl]-2-hydroxy-3-(1,2,4-triazol-1-yl)propanoate]
[2]; 0.1 ppm
  efficacy %: 87%
[2]; 0.5 ppm
  efficacy %: 98%
[2]; 2.5 ppm
  efficacy %: 96%
[2]; single compound at 0.02 ppm
  efficacy %: 0%
[3]; 0.02 ppm
  efficacy %: 0%
[3]; 0.1 ppm
  efficacy %: 5%
[3]; 0.5 ppm
  efficacy %: 15%
[3]; 2.5 ppm
  efficacy %: 99%
[7]; 0.1 ppm
  efficacy %: 0%
[7]; 0.5 ppm
  efficacy %: 96%
[8]; 0.02 ppm
  efficacy %: 9%
[8]; 0.5 ppm
  efficacy %: 96%
[8]; 2.5 ppm
  efficacy %: 98%
[4]; 0.02 ppm
  efficacy %: 14% and 10% and 4%
[4]; 0.5 ppm
  efficacy %: 0%
[5]; 0.1 ppm
  efficacy %: 0%
[5]; 0.5 ppm
  efficacy %: 32%
[9]; 0.5 ppm
  efficacy %: 100%
[9]; 2.5 ppm
  efficacy %: 100%
[6]; 0.02 ppm
  efficacy %: 3%
[6]; 0.2 ppm
  efficacy %: 0%
[6]; 0.5 ppm
  efficacy %: 27%

## inpyrfluxam [(2.027)]
[3]; 1 ppm
  efficacy %: 3%
[7]; 1 ppm
  efficacy %: 86% and 84%

## mancozeb [(5.013)]
[1]; 0.16 ppm
  efficacy %: 0%
[1]; 0.8 ppm
  efficacy %: 0% and 1%
[1]; 20 ppm
  efficacy %: 74%
[2]; single compound at 0.16 ppm
  efficacy %: 0%
[3]; 0.16 ppm
  efficacy %: 0%
[3]; 0.8 ppm
  efficacy %: 0%
[3]; 4 ppm
  efficacy %: 12%
[7]; 0.8 ppm
  efficacy %: 0%
[7]; 20 ppm
  efficacy %: 96%
[4]; 0.16 ppm
  efficacy %: 0%
[4]; 0.8 ppm
  efficacy %: 0%
[4]; 4 ppm
  efficacy %: 0%
[5]; 4 ppm
  efficacy %: 24%
[9]; 20 ppm
  efficacy %: 98% and 100%
[6]; 0.16 ppm
  efficacy %: 4%
[6]; 0.8 ppm
  efficacy %: 6%
[6]; 4 ppm
  efficacy %: 6%
